These results are taken from the Kinase Knowledgebase extract (Sharma et al. 2016).

Among the targets are PIK3CA (human) (UniProt P42336); PIK3CB (Human) (UniProt P42338); PIK3CD (Human) (UniProt O00329); PIK3CG (human) (UniProt P48736).
Experiment in all cases: Enzyme Assay

pIC50: −log10 of the molar value. Some results are limits rather than exact numbers.

PIK3CG (human), sequence (P48736 whole entry, looked up): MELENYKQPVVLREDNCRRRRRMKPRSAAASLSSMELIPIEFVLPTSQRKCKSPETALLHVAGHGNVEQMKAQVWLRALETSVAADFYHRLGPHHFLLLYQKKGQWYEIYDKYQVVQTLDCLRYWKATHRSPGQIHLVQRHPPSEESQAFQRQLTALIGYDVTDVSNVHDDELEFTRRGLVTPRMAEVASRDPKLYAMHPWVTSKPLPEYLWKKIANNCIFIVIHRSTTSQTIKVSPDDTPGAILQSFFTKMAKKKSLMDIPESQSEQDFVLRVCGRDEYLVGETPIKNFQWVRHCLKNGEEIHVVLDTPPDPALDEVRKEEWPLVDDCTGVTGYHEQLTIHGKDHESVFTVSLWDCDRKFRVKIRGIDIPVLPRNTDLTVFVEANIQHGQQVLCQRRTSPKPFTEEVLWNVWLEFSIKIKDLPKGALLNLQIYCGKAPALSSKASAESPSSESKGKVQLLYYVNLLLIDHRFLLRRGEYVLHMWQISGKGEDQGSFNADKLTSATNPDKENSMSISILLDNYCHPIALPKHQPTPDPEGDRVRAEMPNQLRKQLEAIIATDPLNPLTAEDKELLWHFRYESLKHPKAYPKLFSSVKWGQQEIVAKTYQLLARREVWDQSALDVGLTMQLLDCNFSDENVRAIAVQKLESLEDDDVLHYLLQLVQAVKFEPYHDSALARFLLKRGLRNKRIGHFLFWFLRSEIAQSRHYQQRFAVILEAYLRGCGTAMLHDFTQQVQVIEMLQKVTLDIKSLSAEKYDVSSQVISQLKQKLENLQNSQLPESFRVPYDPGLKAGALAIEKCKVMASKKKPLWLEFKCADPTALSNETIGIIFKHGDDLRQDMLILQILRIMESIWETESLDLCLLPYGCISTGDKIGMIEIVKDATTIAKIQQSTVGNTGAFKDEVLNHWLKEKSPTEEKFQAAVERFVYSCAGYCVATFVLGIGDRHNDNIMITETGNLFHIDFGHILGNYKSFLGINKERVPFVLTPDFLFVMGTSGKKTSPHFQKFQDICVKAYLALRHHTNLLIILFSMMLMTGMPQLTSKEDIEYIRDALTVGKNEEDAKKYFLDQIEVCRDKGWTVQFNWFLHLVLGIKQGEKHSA
PIK3CD (Human), sequence (O00329 whole entry, looked up): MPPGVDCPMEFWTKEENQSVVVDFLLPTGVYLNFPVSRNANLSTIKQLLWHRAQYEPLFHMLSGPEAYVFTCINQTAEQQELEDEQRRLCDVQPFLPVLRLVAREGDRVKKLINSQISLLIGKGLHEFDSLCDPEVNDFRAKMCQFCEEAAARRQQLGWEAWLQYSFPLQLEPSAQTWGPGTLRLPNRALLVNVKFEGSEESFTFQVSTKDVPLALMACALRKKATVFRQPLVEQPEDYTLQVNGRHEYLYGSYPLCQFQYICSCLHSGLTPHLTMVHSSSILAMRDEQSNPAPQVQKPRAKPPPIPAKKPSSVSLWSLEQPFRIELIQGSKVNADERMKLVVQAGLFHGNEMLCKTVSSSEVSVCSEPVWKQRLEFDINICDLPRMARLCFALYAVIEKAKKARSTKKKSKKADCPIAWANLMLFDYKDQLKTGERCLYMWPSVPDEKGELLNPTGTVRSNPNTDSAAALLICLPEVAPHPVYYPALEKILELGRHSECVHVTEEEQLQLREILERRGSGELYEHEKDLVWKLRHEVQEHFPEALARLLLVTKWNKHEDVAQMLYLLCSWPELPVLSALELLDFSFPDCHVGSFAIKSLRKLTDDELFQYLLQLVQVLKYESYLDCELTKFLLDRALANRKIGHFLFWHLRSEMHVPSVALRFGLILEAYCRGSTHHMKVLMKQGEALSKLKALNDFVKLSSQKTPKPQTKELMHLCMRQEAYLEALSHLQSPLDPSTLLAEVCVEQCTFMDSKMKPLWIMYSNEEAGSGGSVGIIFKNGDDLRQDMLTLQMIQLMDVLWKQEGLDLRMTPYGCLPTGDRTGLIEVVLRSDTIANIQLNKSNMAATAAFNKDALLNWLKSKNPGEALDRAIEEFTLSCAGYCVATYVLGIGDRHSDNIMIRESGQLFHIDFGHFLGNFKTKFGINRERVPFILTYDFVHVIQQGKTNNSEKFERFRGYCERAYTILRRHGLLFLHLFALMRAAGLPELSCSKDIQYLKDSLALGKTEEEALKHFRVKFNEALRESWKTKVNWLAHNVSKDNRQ
PIK3CA (human), sequence (P42336 whole entry, looked up): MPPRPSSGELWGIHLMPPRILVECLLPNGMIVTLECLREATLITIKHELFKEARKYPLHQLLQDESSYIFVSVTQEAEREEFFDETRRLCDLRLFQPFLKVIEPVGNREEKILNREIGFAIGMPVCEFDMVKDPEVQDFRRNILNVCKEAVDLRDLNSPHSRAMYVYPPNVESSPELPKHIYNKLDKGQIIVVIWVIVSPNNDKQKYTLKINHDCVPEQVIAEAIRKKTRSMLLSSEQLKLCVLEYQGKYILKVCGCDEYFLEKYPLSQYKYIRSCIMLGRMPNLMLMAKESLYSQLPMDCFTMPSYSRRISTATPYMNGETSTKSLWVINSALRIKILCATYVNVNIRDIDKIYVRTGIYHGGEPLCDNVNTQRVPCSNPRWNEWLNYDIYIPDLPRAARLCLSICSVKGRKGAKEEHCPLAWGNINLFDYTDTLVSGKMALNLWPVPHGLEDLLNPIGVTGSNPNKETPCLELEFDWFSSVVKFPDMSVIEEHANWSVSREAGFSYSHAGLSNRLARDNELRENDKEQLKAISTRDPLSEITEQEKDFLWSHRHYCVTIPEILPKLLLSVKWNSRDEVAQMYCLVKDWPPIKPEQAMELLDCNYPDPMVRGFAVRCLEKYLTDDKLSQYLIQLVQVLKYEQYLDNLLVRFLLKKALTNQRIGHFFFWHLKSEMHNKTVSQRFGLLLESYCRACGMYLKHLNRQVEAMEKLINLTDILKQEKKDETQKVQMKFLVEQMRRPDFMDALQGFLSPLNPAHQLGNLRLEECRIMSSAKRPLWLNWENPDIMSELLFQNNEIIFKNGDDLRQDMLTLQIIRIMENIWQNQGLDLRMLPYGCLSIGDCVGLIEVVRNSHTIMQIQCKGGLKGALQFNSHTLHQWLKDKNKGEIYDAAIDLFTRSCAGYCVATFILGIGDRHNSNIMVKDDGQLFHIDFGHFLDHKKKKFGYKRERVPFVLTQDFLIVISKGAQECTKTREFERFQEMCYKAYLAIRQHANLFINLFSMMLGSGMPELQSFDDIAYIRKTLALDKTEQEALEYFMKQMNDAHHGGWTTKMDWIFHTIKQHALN
PIK3CB (Human), sequence (P42338 whole entry, looked up): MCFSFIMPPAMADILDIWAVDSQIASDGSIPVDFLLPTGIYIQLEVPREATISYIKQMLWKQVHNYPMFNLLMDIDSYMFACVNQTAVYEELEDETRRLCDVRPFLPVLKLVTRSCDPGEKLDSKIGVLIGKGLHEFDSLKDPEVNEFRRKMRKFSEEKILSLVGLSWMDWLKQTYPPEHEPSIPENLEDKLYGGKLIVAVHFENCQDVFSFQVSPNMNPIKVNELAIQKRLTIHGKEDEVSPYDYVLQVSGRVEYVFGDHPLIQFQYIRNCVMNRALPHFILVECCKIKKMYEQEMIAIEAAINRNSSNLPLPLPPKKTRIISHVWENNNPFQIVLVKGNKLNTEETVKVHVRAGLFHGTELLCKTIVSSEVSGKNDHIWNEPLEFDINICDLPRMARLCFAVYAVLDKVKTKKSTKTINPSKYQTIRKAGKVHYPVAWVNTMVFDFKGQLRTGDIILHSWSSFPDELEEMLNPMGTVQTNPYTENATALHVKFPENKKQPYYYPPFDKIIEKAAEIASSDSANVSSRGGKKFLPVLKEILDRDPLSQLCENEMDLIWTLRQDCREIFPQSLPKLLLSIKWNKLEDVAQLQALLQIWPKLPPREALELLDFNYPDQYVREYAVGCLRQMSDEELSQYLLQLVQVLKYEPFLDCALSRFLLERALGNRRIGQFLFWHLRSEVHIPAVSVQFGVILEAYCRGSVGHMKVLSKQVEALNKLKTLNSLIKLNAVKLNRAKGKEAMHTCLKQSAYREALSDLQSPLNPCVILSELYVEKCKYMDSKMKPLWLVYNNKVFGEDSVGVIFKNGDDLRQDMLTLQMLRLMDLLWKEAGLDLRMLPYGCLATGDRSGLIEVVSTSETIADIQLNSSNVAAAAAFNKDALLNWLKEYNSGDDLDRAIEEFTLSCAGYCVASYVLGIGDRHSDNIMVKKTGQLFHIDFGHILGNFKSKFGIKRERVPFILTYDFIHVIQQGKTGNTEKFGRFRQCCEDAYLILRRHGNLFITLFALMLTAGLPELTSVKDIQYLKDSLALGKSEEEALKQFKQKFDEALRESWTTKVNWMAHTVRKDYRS

For `CN(CCO)S(=O)(=O)c1cncc(-c2ccc3nc(NC(=O)NCCc4noc(C(C)(C)C)n4)sc3c2)c1`, the pIC50 is 5.77 against PIK3CA (human), 7.21 against PIK3CB (Human), 6.78 against PIK3CD (Human) and 8.52 against PIK3CG (human).

For `C[C@H](Nc1ncnc2nc[nH]c12)c1nc2ccc(F)cc2c(=O)n1-c1ccccc1`, the pIC50 against PIK3CA (human) is 5.26; at PIK3CD (Human) it was 7.92; on PIK3CG (human), 5.86.

At PIK3CG (human), `CC(C)(O)CNc1ncc(-c2ccnc(Nc3ccnc(Cl)c3)n2)c(CC2CC2)n1` gave a pIC50 of 5.70.

Take `Nc1ncc(-c2ccnc(Nc3ccncc3)n2)c(CC2CC2)n1`: the results for the pIC50 against PIK3CA (human), against PIK3CD (Human) and at PIK3CG (human) were 5.40, 5.92 and 5.52, respectively.

Consider `O=C1NC(=O)/C(=C/c2ccc(-c3ccc(F)cc3O)o2)S1`, for which the figures for the pIC50 at PIK3CA (human), on PIK3CB (Human) and against PIK3CD (Human) were 5.97, under 4.70 and under 4.70, respectively.

Consider `Fc1ccc2[nH]ccc2c1-c1nc(N2CCOCC2)c2sc(CN3CCN(CC4CC4)CC3)cc2n1`, for which the negative-log IC50 (pIC50) at PIK3CA (human) was 6.04; against PIK3CB (Human), 5.58; against PIK3CD (Human), 8.30; against PIK3CG (human), under 3.00.

Turning to `Cc1ccccc1Oc1cccc2c(=O)cc(N3CCOCC3)[nH]c12`, the pIC50 against PIK3CA (human) is 4.21; on PIK3CB (Human), 6.89; at PIK3CD (Human) it was 6.20; against PIK3CG (human) it was under 4.00.

As to `C[C@@H]1COCCN1c1cc(=O)n2c(n1)N(Cc1cncc(Cl)c1)[C@H](C(F)(F)F)CC2`, the pIC50 at PIK3CB (Human), at PIK3CD (Human) and against PIK3CG (human) was under 5.00 throughout.

For `CC(C)(C)NS(=O)(=O)c1cncc(-c2cc(F)c3nc(N)nn3c2)c1`, the pIC50 is under 5.00 on PIK3CA (human), 5.96 against PIK3CB (Human), 5.09 at PIK3CD (Human) and 7.57 at PIK3CG (human).

By pIC50 is commonly meant the IC50 on a negative log10 scale, so that one unit is a factor of ten.
